Measured values reported in patent US8952024B2, “Herbicidal pyrimidone derivatives” (E I du Pont de Nemours and Company, priority 2009, dated 2015).
Read-outs that look alike come from different tables or passages of the source.

Experiments:
Assay in all cases: Test B pre-/postemergence plant response
Format in all cases: in vivo
[1] = tested on: lambsquarters (Chenopodium album); settings: for pest or weed control at 31 g/ha: 31 g ai/ha; for pest or weed control at 125 g/ha: 125 g ai/ha
In short: (§1)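 Plants treated either at seeding (loam/sand soil) or postemergence at 2 to 18 cm height, using a surfactant-containing non-phytotoxic solvent formulation. Evaluation was visual after 13 to 15 days, 0 to 100 scale relative to controls.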

[2] = tested on: cocklebur (Xanthium strumarium); settings: for pest or weed control at 31 g/ha: 31 g ai/ha; for pest or weed control at 125 g/ha: 125 g ai/ha
In short: as §1

soybean (Glycine max) = tested on: soybean (Glycine max)
In short: as §1

[3] = tested on: green foxtail (Setaria viridis); settings: for pest or weed control at 31 g/ha: 31 g ai/ha; for pest or weed control at 125 g/ha: 125 g ai/ha
In short: as §1

wild oat (Avena fatua) = settings: for pest or weed control at 31 g/ha: 31 g ai/ha; for pest or weed control at 125 g/ha: 125 g ai/ha
In short: as §1

[4] = tested on: pigweed (Amaranthus retroflexus); settings: for pest or weed control at 31 g/ha: 31 g ai/ha; for pest or weed control at 125 g/ha: 125 g ai/ha
In short: as §1

kochia (Kochia scoparia) = settings: for pest or weed control at 31 g/ha: 31 g ai/ha; for pest or weed control at 125 g/ha: 125 g ai/ha
In short: as §1

[5] = tested on: bermudagrass (Cynodon dactylon); settings: postemergence, 100 is complete control
In short: as §1

[6] = 62 g ai/ha, postemergence, 0 is no effect, 100 is complete control, 13 to 15 days
[7] = Preemergence, 250 g ai/ha, 0 to 100 scale

Compound: COCCCn1c(-c2ccccc2)ncc(C(=O)C2=C(O)CCCC2=O)c1=O [Compound 81, 5-[(2-hydroxy-6-oxo-cyclohexen-1-yl)carbonyl]-3-(3-methoxypropyl)-2-phenyl-4(3H)-pyrimidinone]
- Lambsquarters plant response rating (0 to 100 scale) [1, 6]: 98
- pest or weed control at 31 g/ha ([1]; Chenopodium album, post-emergence, postemergence, scale 0 to 100, 0 is no effect, 100 is complete control, read-out: Plant response rating, Lambsquarters): 95%
- pest or weed control at 125 g/ha ([1]; Chenopodium album, post-emergence, Postemergence, visual rating after 13 to 15 days, scale 0 (no effect) to 100 (complete control)): 100%
- pest or weed control at 250 g/ha ([1]; Chenopodium album, post-emergence, Postemergence, 250 g ai/ha, scale 0 to 100 (0 no effect, 100 complete control), read-out: Plant response rating, Lambsquarters): 100%
- pest or weed control at 31 g/ha ([1]; Chenopodium album, pre-emergence, Preemergence, scale 0 to 100 (0 no effect, 100 complete control), read-out: Plant response rating, Lambsquarters): 98%
- pest or weed control at 62 g/ha ([1]; Chenopodium album, pre-emergence, Preemergence, 62 g ai/ha, scale 0 to 100, 0 no effect, 100 complete control, read-out: Plant response rating, Lambsquarters): 98%
- pest or weed control at 125 g/ha ([1]; Chenopodium album, pre-emergence, Preemergence, scale 0 to 100, 0 no effect, 100 complete control, read-out: Plant response rating, Lambsquarters): 98%
- Lambsquarters plant response rating [1, 7]: 98
- Cocklebur plant response rating (0 to 100 scale) [2, 6]: 55
- Cocklebur plant response rating [2, 7]: 85
- pest or weed control at 31 g/ha ([2]; Xanthium strumarium, post-emergence, postemergence, scale 0 to 100, 0 is no effect, 100 is complete control, read-out: Plant response rating, Cocklebur): 5%
- pest or weed control at 125 g/ha ([2]; Xanthium strumarium, post-emergence, Postemergence, visual rating after 13 to 15 days, scale 0 (no effect) to 100 (complete control)): 65%
- pest or weed control at 250 g/ha ([2]; Xanthium strumarium, post-emergence, Postemergence, 250 g ai/ha, scale 0 to 100 (0 no effect, 100 complete control), read-out: Plant response rating, Cocklebur): 90%
- pest or weed control at 31 g/ha ([2]; Xanthium strumarium, pre-emergence, Preemergence, scale 0 to 100 (0 no effect, 100 complete control), read-out: Plant response rating, Cocklebur): 0%
- pest or weed control at 62 g/ha ([2]; Xanthium strumarium, pre-emergence, Preemergence, 62 g ai/ha, scale 0 to 100, 0 no effect, 100 complete control, read-out: Plant response rating, Cocklebur): 10%
- pest or weed control at 125 g/ha ([2]; Xanthium strumarium, pre-emergence, Preemergence, scale 0 to 100, 0 no effect, 100 complete control, read-out: Plant response rating, Cocklebur): 75%
- Soybean plant response rating (0 to 100 scale) (soybean (Glycine max); [6]): 95
- plant injury at 31 g/ha (soybean (Glycine max); Glycine max, post-emergence, 31 g ai/ha, postemergence, scale 0 to 100, 0 is no effect, 100 is complete control, read-out: Plant response rating, Soybean): 85%
- plant injury at 125 g/ha (soybean (Glycine max); Glycine max, post-emergence, Postemergence, 125 g ai/ha, visual rating after 13 to 15 days, scale 0 (no effect) to 100 (complete control)): 95%
- plant injury at 250 g/ha (soybean (Glycine max); Glycine max, post-emergence, Postemergence, 250 g ai/ha, scale 0 to 100 (0 no effect, 100 complete control), read-out: Plant response rating, Soybean): 98%
- Foxtail, Green plant response rating (0 to 100 scale) [3, 6]: 85
- Foxtail, Green plant response rating [3, 7]: 100
- pest or weed control at 31 g/ha ([3]; Setaria viridis, post-emergence, postemergence, scale 0 to 100, 0 is no effect, 100 is complete control, read-out: Plant response rating, Foxtail, Green): 5%
- pest or weed control at 125 g/ha ([3]; Setaria viridis, post-emergence, Postemergence, visual rating after 13 to 15 days, scale 0 (no effect) to 100 (complete control)): 95%
- pest or weed control at 250 g/ha ([3]; Setaria viridis, post-emergence, Postemergence, 250 g ai/ha, scale 0 to 100 (0 no effect, 100 complete control), read-out: Plant response rating, Foxtail, Green): 95%
- pest or weed control at 31 g/ha ([3]; Setaria viridis, pre-emergence, Preemergence, scale 0 to 100 (0 no effect, 100 complete control), read-out: Plant response rating, Foxtail, Green): 80%
- pest or weed control at 62 g/ha ([3]; Setaria viridis, pre-emergence, Preemergence, 62 g ai/ha, scale 0 to 100, 0 no effect, 100 complete control, read-out: Plant response rating, Foxtail, Green): 90%
- pest or weed control at 125 g/ha ([3]; Setaria viridis, pre-emergence, Preemergence, scale 0 to 100, 0 no effect, 100 complete control, read-out: Plant response rating, Foxtail, Green): 100%
- Oat, Wild plant response rating (0 to 100 scale) (wild oat (Avena fatua); [6]): 35
- pest or weed control at 31 g/ha (wild oat (Avena fatua); Avena fatua, post-emergence, postemergence, scale 0 to 100, 0 is no effect, 100 is complete control, read-out: Plant response rating, Oat, Wild): 25%
- pest or weed control at 125 g/ha (wild oat (Avena fatua); Avena fatua, post-emergence, Postemergence, visual rating after 13 to 15 days, scale 0 (no effect) to 100 (complete control)): 50%
- pest or weed control at 250 g/ha (wild oat (Avena fatua); Avena fatua, post-emergence, Postemergence, 250 g ai/ha, scale 0 to 100 (0 no effect, 100 complete control), read-out: Plant response rating, Oat, Wild): 55%
- pest or weed control at 31 g/ha (wild oat (Avena fatua); Avena fatua, pre-emergence, Preemergence, scale 0 to 100 (0 no effect, 100 complete control), read-out: Plant response rating, Oat, Wild): 0%
- pest or weed control at 62 g/ha (wild oat (Avena fatua); Avena fatua, pre-emergence, Preemergence, 62 g ai/ha, scale 0 to 100 (0 no effect, 100 complete control), read-out: Plant response rating, Oat, Wild): 0%
- pest or weed control at 125 g/ha (wild oat (Avena fatua); Avena fatua, pre-emergence, Preemergence, scale 0 to 100, 0 no effect, 100 complete control, read-out: Plant response rating, Oat, Wild): 0%
- Oat, Wild plant response rating (wild oat (Avena fatua); [7]): 0
- Pigweed plant response rating (0 to 100 scale) [4, 6]: 100
- pest or weed control at 31 g/ha ([4]; Amaranthus retroflexus, post-emergence, postemergence, scale 0 to 100, 0 is no effect, 100 is complete control, read-out: Plant response rating, Pigweed): 98%
- pest or weed control at 125 g/ha ([4]; Amaranthus retroflexus, post-emergence, Postemergence, visual rating after 13 to 15 days, scale 0 (no effect) to 100 (complete control)): 100%
- pest or weed control at 250 g/ha ([4]; Amaranthus retroflexus, post-emergence, Postemergence, 250 g ai/ha, scale 0 to 100 (0 no effect, 100 complete control), read-out: Plant response rating, Pigweed): 100%
- pest or weed control at 31 g/ha ([4]; Amaranthus retroflexus, pre-emergence, Preemergence, scale 0 to 100 (0 no effect, 100 complete control), read-out: Plant response rating, Pigweed): 100%
- pest or weed control at 62 g/ha ([4]; Amaranthus retroflexus, pre-emergence, Preemergence, 62 g ai/ha, scale 0 to 100 (0 no effect, 100 complete control), read-out: Plant response rating, Pigweed): 100%
- pest or weed control at 125 g/ha ([4]; Amaranthus retroflexus, pre-emergence, Preemergence, scale 0 to 100, 0 no effect, 100 complete control, read-out: Plant response rating, Pigweed): 100%
- Pigweed plant response rating [4, 7]: 100
- Kochia plant response rating (0 to 100 scale) (kochia (Kochia scoparia); [6]): 80
- pest or weed control at 31 g/ha (kochia (Kochia scoparia); Bassia scoparia, post-emergence, postemergence, scale 0 to 100, 0 is no effect, 100 is complete control, read-out: Plant response rating, Kochia): 75%
- pest or weed control at 125 g/ha (kochia (Kochia scoparia); Bassia scoparia, post-emergence, Postemergence, visual rating after 13 to 15 days, scale 0 (no effect) to 100 (complete control)): 90%
- pest or weed control at 250 g/ha (kochia (Kochia scoparia); Bassia scoparia, post-emergence, Postemergence, 250 g ai/ha, scale 0 to 100 (0 no effect, 100 complete control), read-out: Plant response rating, Kochia): 100%
- pest or weed control at 31 g/ha (kochia (Kochia scoparia); Bassia scoparia, pre-emergence, Preemergence, scale 0 to 100 (0 no effect, 100 complete control), read-out: Plant response rating, Kochia): 45%
- pest or weed control at 62 g/ha (kochia (Kochia scoparia); Bassia scoparia, pre-emergence, Preemergence, 62 g ai/ha, scale 0 to 100 (0 no effect, 100 complete control), read-out: Plant response rating, Kochia): 55%
- pest or weed control at 125 g/ha (kochia (Kochia scoparia); Bassia scoparia, pre-emergence, Preemergence, scale 0 to 100, 0 no effect, 100 complete control, read-out: Plant response rating, Kochia): 65%
- Kochia plant response rating (kochia (Kochia scoparia); [7]): 70
- Bermudagrass plant response rating (0 to 100 scale) ([5]; 62 g ai/ha, 0 is no effect, 13 to 15 days): 85
- pest or weed control at 31 g/ha ([5]; Cynodon dactylon, post-emergence, 31 g ai/ha, scale 0 to 100, 0 is no effect, read-out: Plant response rating, Bermudagrass): 85%
